Series [1] has as its system BHK-21 cells. In words: MTT cell proliferation cytotoxicity assay, BHK-21. The settings on record: for CC50: BHK-21 cells, MTT, 42 h; for CC50 relative to IC50 (fold higher): BHK-21 CC50 vs in vitro IC50. The series is classed as cell-based.
Series [2] has as its target T1, WNV MTase (West Nile virus, UniProt Q9Q6P4). In words: N7 methylation inhibition assay, WNV MTase. Particulars: for IC50: WNV MTase.
The target in series [3] is T1, WNV MTase. In words: 2′-O methylation inhibition assay, WNV MTase.
Series [4] has as its system WNV. Description: microbe, parasite or virus in culture. The settings on record: West Nile virus, 42 h. In kind it is cell-based, West Nile virus (WNV).
In series [5] the test system is VSV. In kind it is cell-based.
The conditions of series [6]: cited from earlier work.
In series [7] the test system is WEEV. The series is classed as cell-based.
For series [8], the target named is DENV3MTase (Dengue virus type 3, UniProt Q6YMS4). Description: Competitive SAM binding assay.
Series [9] relates to anthrax lethal factor (LF). Particulars: cited from earlier work.
The subject of series [10] is JEV. In words: microbe, parasite or virus in culture. The series is classed as cell-based, Japanese encephalitis virus (JEV). Particulars: Japanese encephalitis virus, A549, 42 h.
Series [11] relates to SLEV. In words: organism not typed. In kind it is cell-based, St. Louis encephalitis viruses (SLEV). The settings on record: A549, 42 h.
For series [12], the system named is herpes simplex virus (HSV)-1. The settings on record: cited from earlier work.
Series [13] has as its system DENV-2. Description: microbe, parasite or virus in culture. The settings on record: Dengue virus, DENV2, A549, 42 h. In kind it is cell-based, Dengue virus (DENV-2).
The mark [14] stands for this setting: read-out: IC50 N7, no CHAPS, no CHAPS.
[15] abbreviates: read-out: IC50 2′-O, with CHAPS, WNV MTase, with CHAPS.
The mark [16] stands for this setting: IC50 N7, with CHAPS, with CHAPS.

The CC50 is the concentration at which the toxic effect on the cells reaches its halfway point. In general, IC50 refers to the point on the concentration scale where inhibition reaches its midpoint. The term inhibition denotes how much of the control response was suppressed. One may read the EC50 as the concentration giving half of the maximal effect. The low end stands for higher potency in that assay, the high end for lower potency in that assay.

T1 sequence (Q9Q6P4 2529-2794): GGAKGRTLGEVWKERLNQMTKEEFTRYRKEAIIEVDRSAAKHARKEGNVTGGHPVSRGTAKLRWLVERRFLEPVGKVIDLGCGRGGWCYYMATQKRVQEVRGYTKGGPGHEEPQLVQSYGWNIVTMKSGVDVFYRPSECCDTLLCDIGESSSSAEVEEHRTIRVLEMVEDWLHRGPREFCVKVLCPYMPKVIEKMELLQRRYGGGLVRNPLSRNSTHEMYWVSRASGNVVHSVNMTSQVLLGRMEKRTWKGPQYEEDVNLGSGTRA
Chain of DENV3MTase (Q6YMS4 2492-2753): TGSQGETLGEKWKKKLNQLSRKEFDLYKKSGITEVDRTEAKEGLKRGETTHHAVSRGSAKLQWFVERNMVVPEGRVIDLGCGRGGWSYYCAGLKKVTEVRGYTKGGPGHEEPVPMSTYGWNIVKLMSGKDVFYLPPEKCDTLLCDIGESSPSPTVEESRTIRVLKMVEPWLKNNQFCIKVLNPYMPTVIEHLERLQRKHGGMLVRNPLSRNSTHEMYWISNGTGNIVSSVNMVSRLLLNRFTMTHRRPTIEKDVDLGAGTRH

For `CC1OC(CC(=O)O)Cc2c1c(O)c1c(O)cc(-c3cc(=O)c4c(=O)c5c(c(=O)c=4c3=O)CC(CC(=O)O)OC5C)c(O)c1c2O` (stereo not shown) [NSC 293161], the CC50 in series [1] stood at 25 µM. For the same compound, the IC50 worked out at 13.2 µM in series [2] (setting [14]); 31 µM in series [2] (read-out: IC50 N7, with CHAPS, with CHAPS); 54.6 µM in series [3] (setting [15]).
Regarding `Nc1ncnc2c1ncn2[C@@H]1O[C@H](C[C@@H](N)CC[C@H](N)C(=O)O)[C@@H](O)[C@H]1O` [SIN, sinefungin, reference compound], the “effect of CHAPS on inhibition activity” value in series [2] (N7 inhibition with detergent CHAPS) was “not affected at all”. For the same compound, in series [2] (read-out: inhibition of N7 activity of the WNV MTase), the inhibition at 150 µM is about 80%.
In the case of `S=C(Nc1ccc2c(c1)Cc1ccccc1-2)Nc1ccc2c(c1)Cc1ccccc1-2` [NSC 23217], the IC50 in series [2] (IC50 N7, no CHAPS, no CHAPS) is 15.7 µM; in series [2] (setting [16]), over 300 µM; in [3], 7.4 µM.
Take `Nc1ccc(-c2ccc(Nc3cc(S(=O)(=O)O)c(N)c4c3C(=O)c3ccccc3C4=O)cc2)c(S(=O)(=O)O)c1` [NSC 125910]: the “CC50 relative to IC50 (fold higher)” value in series [1] worked out at 20 fold. Besides, it took 2.6 µM to reach a half-maximal effect in series [4] (EC50). For the same compound, the IC50 was determined as 7.6 µM in [2] (IC50 N7, no CHAPS, no CHAPS); 17.6 µM in [2] (setting [16]); 3.2 µM in [3].
As for `O=C1C2=C(Nc3cc([N+](=O)[O-])ccc3N2)OC1c1ccc(C2OC3=C(Nc4ccc([N+](=O)[O-])cc4N3)C2=O)cc1` (stereo not shown) [NSC 372295], the CC50 in series [1] came out at 126 µM. Further, the results for the IC50 in [2] (setting [14]) and in [3] (setting [15]) were 62 µM and 57 µM, respectively.
For `Cc1cc(N)c2cc(NC(=O)Nc3ccc4nc(C)cc(N)c4c3)ccc2n1` [NSC 12155, aminoquinuride], the “inhibition of virus growth” value in [5] and in series [7] was “did not inhibit” throughout. Moreover, the binding to glycosaminoglycans entry in [6] is on record as “bind to glycosaminoglycans”. Also, the “CC50 relative to IC50 (fold higher)” value in series [1] is listed as 20 fold. For the same compound, the IC50 in [8] came out at 1.2 µM; in series [2] (IC50 N7, no CHAPS, no CHAPS), 1.4 µM; in series [2] (setting [16]), 0.87 µM; in series [3], 3 µM. In addition, the EC50 amounted to 1 µM in series [4], 3.1 µM in [10], 5.1 µM in series [11] and 7 µM in [13]. The “anthrax lethal factor (LF) activity” value in series [9] was “inhibited”. Also, the “cell adhesion by HSV-1” value in [12] is “prevent cell adhesion”.
As to `Nc1nc(-c2cccc([N+](=O)[O-])c2)cc(-c2cc(-c3cccc([N+](=O)[O-])c3)nc(N)n2)n1` [NSC 371880], in [1], the CC50 stood at 212 µM. Also, the IC50 in series [2] (setting [14]) stood at 63 µM; in [3] (setting [15]) it was 72 µM.

(Values after PMC4696607 (ACS infectious diseases, 2015).)
